According to ChEMBL document CHEMBL5338788, “Discovery of a New-Generation S-Adenosylmethionine-Noncompetitive Covalent Inhibitor Targeting the Lysine Methyltransferase Enhancer of Zeste Homologue 2” (J Med Chem, 2023):
Activity calls are given as the source filed them. The calls are words filed in the database; no cut-off is given here.

Key:
Pfeiffer [1] = assay: Antiproliferative activity against human Pfeiffer cells expressing EZH2 mutant assessed as inhibition of cell proliferation incubated for 6 days by CCK8 assay; format: functional, cell-based; conditions: time 6.0 day
SU-DHL10 = assay: Antiproliferative activity against human SU-DHL-10 cells expressing EZH2 mutant assessed as inhibition of cell proliferation incubated for 6 days by CCK8 assay; format: functional, cell-based; conditions: time 6.0 day
[2] = Apparent permeability in human Caco-2 cells at 20 uM measured for 35 to 95 mins by LC-MS/MS analysis; format: ADME, cell-based; conditions: time 35-95 min
[3] = target: T1, DNA (cytosine-5)-methyltransferase 1 (Homo sapiens, UniProt P26358); assay: Inhibition of DNMT1 (unknown origin) using histone peptide/SAM as substrate by AlphaLisa assay
T1 sequence (P26358 whole entry): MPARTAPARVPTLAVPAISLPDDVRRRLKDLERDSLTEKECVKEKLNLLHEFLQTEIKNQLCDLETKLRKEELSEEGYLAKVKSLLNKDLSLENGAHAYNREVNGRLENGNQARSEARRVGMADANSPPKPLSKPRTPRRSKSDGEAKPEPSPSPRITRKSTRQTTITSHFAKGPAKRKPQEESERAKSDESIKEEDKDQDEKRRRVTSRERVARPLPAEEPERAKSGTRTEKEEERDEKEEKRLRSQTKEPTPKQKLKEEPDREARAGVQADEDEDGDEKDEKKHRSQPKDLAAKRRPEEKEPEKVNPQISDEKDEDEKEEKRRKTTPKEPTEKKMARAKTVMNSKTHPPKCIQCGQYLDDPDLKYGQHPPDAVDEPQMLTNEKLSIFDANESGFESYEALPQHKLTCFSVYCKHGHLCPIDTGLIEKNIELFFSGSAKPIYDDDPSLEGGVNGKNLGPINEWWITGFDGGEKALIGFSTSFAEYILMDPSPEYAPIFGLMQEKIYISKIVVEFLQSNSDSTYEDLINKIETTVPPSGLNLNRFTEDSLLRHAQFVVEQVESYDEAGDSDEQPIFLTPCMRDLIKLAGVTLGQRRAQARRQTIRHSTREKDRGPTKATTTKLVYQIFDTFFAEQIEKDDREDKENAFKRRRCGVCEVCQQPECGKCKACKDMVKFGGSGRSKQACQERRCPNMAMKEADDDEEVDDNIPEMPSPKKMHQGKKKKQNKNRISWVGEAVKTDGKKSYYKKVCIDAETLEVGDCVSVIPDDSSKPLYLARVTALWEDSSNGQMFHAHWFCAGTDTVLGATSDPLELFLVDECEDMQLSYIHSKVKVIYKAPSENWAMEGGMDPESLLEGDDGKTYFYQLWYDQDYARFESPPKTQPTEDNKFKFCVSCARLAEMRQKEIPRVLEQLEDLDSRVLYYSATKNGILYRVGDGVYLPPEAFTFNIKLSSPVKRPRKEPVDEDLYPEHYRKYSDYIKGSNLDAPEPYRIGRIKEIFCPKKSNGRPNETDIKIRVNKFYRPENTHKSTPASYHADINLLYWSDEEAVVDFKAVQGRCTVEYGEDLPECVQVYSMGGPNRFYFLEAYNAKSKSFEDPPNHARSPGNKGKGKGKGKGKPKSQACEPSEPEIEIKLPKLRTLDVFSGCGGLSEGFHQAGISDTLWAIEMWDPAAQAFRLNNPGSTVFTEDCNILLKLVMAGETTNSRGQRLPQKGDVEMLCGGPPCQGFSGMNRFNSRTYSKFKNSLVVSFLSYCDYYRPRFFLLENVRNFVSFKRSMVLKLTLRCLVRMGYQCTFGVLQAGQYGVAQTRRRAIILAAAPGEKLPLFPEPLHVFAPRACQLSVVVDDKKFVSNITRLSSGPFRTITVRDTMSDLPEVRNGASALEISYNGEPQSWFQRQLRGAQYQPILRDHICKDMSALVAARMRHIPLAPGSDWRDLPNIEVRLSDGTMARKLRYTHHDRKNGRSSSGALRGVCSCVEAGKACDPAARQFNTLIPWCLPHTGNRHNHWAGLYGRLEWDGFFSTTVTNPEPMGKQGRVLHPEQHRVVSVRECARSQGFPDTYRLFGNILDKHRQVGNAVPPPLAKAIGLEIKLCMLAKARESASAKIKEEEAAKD

OPM-2 = assay: Antiproliferative activity against human OPM-2 cells expressing wild-type EZH2 assessed as inhibition of cell proliferation incubated for 6 days by CCK8 assay; format: functional, cell-based; conditions: OPM-2, 144 h
[4] = target: T2, Histone-lysine N-methyltransferase 2B (Homo sapiens, UniProt Q9UMN6); assay: Inhibition of MLL4 (unknown origin) using histone peptide/SAM as substrate by HTRF assay
[5] = target: Histone-lysine N-methyltransferase NSD2 (Homo sapiens, UniProt O96028); assay: Inhibition of NSD2 (unknown origin) using histone peptide/SAM as substrate by AlphaLisa assay
KARPAS-422 [6] = assay: Antiproliferative activity against human KARPAS-422 cells expressing EZH2 Y641N mutant assessed as inhibition of cell proliferation incubated for 6 days by CCK8 assay; format: functional, cell-based; conditions: KARPAS-422, 144 h
RL = assay: Antiproliferative activity against human RL cells expressing EZH2 mutant assessed as inhibition of cell proliferation incubated for 6 days by CCK8 assay; format: functional, cell-based; conditions: time 6.0 day
Pfeiffer [7] = assay: Effect on EZH2 level in human Pfeiffer cells at 0.05 to 1 uM incubated for 48 to 96 hrs by Western blot analysis; format: functional, cell-based; conditions: dose 0.05-1 µM, time 48-96 hrs
[8] = Half life in Sprague-Dawley rat at 3 mg/kg, iv measured for 0.25 to 24 hrs by LC-MS/MS analysis; format: ADME, organism-based; conditions: in vivo, time 0.25-24 hrs
[9] = target: Histone-lysine N-methyltransferase EHMT1 (Homo sapiens, UniProt Q9H9B1); assay: Inhibition of GLP (unknown origin) using histone peptide/SAM as substrate by AlphaLisa assay
[10] = target: Histone-arginine methyltransferase CARM1 (Homo sapiens, UniProt Q86X55); assay: Inhibition of PRMT4 (unknown origin) using histone peptide/SAM as substrate by AlphaLisa assay
[11] = target: T3, Histone-lysine N-methyltransferase 2A (Homo sapiens, UniProt Q03164); assay: Inhibition of MLL1 (unknown origin) using histone peptide/SAM as substrate at 10 uM by HTRF assay
[12] = target: T4, Protein arginine N-methyltransferase 1 (Homo sapiens, UniProt Q99873); assay: Inhibition of PRMT1 (unknown origin) using histone peptide/SAM as substrate at 10 uM by AlphaLisa assay
[13] = target: Histone-lysine N-methyltransferase EHMT2 (Homo sapiens) (UniProt Q96KQ7); assay: Inhibition of G9a (unknown origin) using histone peptide/SAM as substrate at 10 uM by AlphaLisa assay
Pfeiffer [14] = assay: Downregulation of H2K27me3 level in human Pfeiffer cells incubated for 48 to 96 hrs by Western blot analysis; format: functional, cell-based; conditions: dose 0.05-1 µM, time 48-96 hrs
U2932 = assay: Antiproliferative activity against human U2932 cells expressing wild-type EZH2 assessed as inhibition of cell proliferation incubated for 6 days by CCK8 assay; format: functional, cell-based; conditions: U2932, 144 h
Pfeiffer [15] = assay: Downregulation of H3K27me3 level in human Pfeiffer cells at 1 uM incubated for 96 hrs followed by compound washout measured after 120 hrs by Western blot analysis; format: functional, cell-based; conditions: time 216.0 hrs
KARPAS-422 [16] = assay: Antiproliferative activity against human KARPAS-422 cells expressing EZH2 mutant assessed as inhibition of cell proliferation incubated for 6 days by CCK8 assay; format: functional, cell-based; conditions: time 6.0 day
Karpas-1106P = assay: Antiproliferative activity against human KARPAS-1106P cells expressing wild-type EZH2 assessed as inhibition of cell proliferation incubated for 6 days by CCK8 assay; format: functional, cell-based; conditions: time 6.0 day
[17] = target: T5, Histone-lysine N-methyltransferase, H3 lysine-36 specific (Homo sapiens, UniProt Q96L73); assay: Inhibition of NSD1 (unknown origin) using histone peptide/SAM as substrate at 10 uM by AlphaLisa assay
T5 sequence (Q96L73 whole entry): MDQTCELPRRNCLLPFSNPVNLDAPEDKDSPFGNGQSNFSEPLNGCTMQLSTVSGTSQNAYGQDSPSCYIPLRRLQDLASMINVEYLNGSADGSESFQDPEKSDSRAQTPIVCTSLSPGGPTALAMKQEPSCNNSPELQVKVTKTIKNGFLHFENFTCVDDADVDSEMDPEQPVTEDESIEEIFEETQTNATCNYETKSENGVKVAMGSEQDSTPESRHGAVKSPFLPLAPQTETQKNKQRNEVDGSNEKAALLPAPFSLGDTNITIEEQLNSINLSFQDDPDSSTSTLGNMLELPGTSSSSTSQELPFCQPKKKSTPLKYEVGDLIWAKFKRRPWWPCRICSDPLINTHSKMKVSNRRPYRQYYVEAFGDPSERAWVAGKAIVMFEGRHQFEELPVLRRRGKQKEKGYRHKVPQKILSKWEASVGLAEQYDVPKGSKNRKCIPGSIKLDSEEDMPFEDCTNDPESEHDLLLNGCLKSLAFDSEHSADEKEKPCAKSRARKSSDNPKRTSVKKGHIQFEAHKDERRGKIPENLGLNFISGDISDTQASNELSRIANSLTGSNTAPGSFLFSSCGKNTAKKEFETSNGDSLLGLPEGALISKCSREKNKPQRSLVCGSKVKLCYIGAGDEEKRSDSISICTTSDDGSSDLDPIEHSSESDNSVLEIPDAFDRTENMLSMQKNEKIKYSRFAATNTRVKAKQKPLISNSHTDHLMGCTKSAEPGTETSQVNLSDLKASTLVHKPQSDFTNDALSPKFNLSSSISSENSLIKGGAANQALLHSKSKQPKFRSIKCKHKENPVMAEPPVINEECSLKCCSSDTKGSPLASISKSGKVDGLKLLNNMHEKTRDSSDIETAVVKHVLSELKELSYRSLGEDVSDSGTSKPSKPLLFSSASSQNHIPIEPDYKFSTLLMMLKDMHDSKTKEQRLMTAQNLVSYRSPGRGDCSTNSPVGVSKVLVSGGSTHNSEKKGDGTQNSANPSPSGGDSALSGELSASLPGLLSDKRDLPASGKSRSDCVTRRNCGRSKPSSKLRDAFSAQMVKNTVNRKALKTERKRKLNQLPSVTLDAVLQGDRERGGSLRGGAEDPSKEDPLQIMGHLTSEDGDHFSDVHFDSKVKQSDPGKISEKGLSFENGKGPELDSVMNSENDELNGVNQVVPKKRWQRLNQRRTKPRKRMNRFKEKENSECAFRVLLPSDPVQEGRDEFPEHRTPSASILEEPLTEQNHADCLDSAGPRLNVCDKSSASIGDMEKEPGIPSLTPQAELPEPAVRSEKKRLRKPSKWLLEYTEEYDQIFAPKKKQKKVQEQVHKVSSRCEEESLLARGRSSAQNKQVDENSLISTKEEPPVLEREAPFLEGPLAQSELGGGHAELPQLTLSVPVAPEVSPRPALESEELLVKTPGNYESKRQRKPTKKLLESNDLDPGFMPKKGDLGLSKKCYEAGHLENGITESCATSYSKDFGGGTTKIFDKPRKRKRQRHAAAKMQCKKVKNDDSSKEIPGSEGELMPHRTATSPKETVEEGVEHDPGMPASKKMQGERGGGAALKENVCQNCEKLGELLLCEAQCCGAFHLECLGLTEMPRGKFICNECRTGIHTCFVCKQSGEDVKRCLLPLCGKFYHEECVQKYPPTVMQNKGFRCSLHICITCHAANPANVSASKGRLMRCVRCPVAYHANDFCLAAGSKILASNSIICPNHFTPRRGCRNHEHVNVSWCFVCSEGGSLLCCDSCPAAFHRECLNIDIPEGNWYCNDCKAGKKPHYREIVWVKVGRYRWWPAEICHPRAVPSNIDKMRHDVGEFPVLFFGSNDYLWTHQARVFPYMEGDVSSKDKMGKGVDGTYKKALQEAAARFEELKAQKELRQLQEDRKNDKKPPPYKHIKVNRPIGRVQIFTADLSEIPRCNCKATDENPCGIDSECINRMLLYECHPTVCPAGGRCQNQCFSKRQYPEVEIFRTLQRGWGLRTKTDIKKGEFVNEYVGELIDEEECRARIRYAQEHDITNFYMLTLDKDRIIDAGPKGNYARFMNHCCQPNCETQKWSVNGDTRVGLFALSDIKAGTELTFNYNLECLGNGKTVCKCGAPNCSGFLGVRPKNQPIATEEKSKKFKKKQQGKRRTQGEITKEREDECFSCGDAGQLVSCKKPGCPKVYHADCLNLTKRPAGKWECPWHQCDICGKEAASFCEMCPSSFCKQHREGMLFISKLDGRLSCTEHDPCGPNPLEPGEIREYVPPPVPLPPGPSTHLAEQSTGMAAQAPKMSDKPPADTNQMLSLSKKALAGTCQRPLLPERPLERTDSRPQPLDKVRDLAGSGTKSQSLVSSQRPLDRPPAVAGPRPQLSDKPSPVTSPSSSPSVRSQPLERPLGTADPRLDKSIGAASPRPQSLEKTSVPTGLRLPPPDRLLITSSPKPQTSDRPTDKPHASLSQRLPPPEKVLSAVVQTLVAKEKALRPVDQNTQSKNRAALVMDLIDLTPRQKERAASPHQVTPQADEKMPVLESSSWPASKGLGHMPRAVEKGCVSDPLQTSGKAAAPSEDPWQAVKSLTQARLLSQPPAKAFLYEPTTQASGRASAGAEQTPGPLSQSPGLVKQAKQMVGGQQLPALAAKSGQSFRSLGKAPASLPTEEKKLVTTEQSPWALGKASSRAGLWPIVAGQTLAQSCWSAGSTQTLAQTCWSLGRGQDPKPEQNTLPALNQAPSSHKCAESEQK

HT = assay: Antiproliferative activity against human HT cells expressing wild-type EZH2 assessed as inhibition of cell proliferation incubated for 6 days by CCK8 assay; format: functional, cell-based; conditions: time 6.0 day
[18] = Bioavailability in Sprague-Dawley rat at 10 mg/kg, po measured for 0.25 to 24 hrs by LC-MS/MS analysis; format: ADME, organism-based; conditions: in vivo, time 0.25-24 hrs
KARPAS-422 [19] = assay: Downregulation of H2K27me3 level in human KARPAS-422 cells at 0.05 to 1 uM by Western blot analysis; format: functional, cell-based; conditions: dose 0.05-1 µM, time 48-96 hrs, TDE = time-dependent effect
[20] = target: Histone-lysine N-methyltransferase EHMT2 (Homo sapiens, UniProt Q96KQ7); assay: Inhibition of G9a (unknown origin) using histone peptide/SAM as substrate by AlphaLisa assay
[21] = target: Histone-lysine N-methyltransferase EHMT1 (Homo sapiens) (UniProt Q9H9B1); assay: Inhibition of GLP (unknown origin) using histone peptide/SAM as substrate at 10 uM by AlphaLisa assay
[22] = Cmax in Sprague-Dawley rat at 10 mg/kg, po measured for 0.25 to 24 hrs by LC-MS/MS analysis; format: ADME, organism-based; set-up: time lower 0.25 hrs, dose 10 mg/kg, time upper 24 hrs, route po; conditions: in vivo
Pfeiffer [23] = assay: Downregulation of H2K27me3 level in human Pfeiffer cells at 0.05 to 1 uM by Western blot analysis; format: functional, cell-based; conditions: dose 0.05-1 µM, time 48-96 hrs, TDE = time-dependent effect
[24] = target: T4, Protein arginine N-methyltransferase 1; assay: Inhibition of PRMT1 (unknown origin) using histone peptide/SAM as substrate by AlphaLisa assay
[25] = target: T6, Protein arginine N-methyltransferase 5 (Homo sapiens, UniProt O14744); assay: Inhibition of PRMT5 (unknown origin) using histone peptide/SAM as substrate by AlphaLisa assay
T6 sequence (O14744 whole entry): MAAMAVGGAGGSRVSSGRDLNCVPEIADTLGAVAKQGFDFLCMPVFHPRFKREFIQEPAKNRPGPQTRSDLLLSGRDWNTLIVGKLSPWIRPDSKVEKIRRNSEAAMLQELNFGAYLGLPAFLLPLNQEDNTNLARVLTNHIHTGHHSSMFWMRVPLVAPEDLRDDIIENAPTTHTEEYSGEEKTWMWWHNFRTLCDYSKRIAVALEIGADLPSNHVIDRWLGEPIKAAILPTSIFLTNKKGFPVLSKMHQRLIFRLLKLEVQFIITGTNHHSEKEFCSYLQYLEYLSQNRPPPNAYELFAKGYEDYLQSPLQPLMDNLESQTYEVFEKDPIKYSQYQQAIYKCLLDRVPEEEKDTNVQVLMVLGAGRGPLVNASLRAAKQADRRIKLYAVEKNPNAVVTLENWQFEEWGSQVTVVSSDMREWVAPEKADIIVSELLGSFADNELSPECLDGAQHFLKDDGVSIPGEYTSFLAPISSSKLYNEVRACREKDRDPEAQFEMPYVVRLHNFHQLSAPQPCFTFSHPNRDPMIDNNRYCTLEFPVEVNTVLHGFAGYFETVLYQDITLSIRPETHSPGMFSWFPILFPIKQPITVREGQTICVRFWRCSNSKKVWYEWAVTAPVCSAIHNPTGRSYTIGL

Pfeiffer [26] = assay: Antiproliferative activity against human Pfeiffer cells expressing EZH2 […] mutant assessed as inhibition of cell proliferation incubated for 6 days by CCK8 assay; format: functional, cell-based; conditions: 144 h
[27] = AUC (0 to last) in Sprague-Dawley rat at 3 mg/kg, iv measured for 0.25 to 24 hrs by LC-MS/MS analysis; format: ADME, organism-based; set-up: time 0.25-24 hrs, dose 3 mg/kg, route iv; conditions: in vivo
[28] = target: Histone-arginine methyltransferase CARM1 (Homo sapiens) (UniProt Q86X55); assay: Inhibition of PRMT4 (unknown origin) using histone peptide/SAM as substrate at 10 uM by AlphaLisa assay
KARPAS-422 [29] = assay: Downregulation of H2K27me3 level in human KARPAS-422 cells incubated for 48 to 96 hrs by Western blot analysis; format: functional, cell-based; conditions: dose 0.05-1 µM, time 48-96 hrs
Pfeiffer [30] = assay: Effect on total H3 level in human Pfeiffer cells at 0.05 to 1 uM incubated for 48 to 96 hrs by Western blot analysis; format: functional, cell-based; conditions: dose 0.05-1 µM, time 48-96 hrs
[31] = AUC (0 to last) in Sprague-Dawley rat at 10 mg/kg, po measured for 0.25 to 24 hrs by LC-MS/MS analysis; format: ADME, organism-based; set-up: dose 10 mg/kg, time upper 24 hrs, time lower 0.25 hrs, route po; conditions: in vivo
[32] = Metabolic stability in human liver microsomes assessed as half life preincubated for 10 mins followed by NADPH addition measured upto 60 mins by LC-MS/MS analysis; format: ADME, Microsome; conditions: time < 70 min
[33] = target: T2, Histone-lysine N-methyltransferase 2B; assay: Inhibition of MLL4 (unknown origin) using histone peptide/SAM as substrate at 10 uM by HTRF assay
SU-DHL-2 = assay: Antiproliferative activity against human SUDHL2 cells expressing EZH2 mutant assessed as inhibition of cell proliferation incubated for 6 days by CCK8 assay; format: functional, cell-based; conditions: SU-DHL-2, 144 h
DB = assay: Antiproliferative activity against human DB cells expressing wild-type EZH2 assessed as inhibition of cell proliferation incubated for 6 days by CCK8 assay; format: functional, cell-based; conditions: 144 h
[34] = target: Histone-lysine N-methyltransferase NSD2 (Homo sapiens) (UniProt O96028); assay: Inhibition of NSD2 (unknown origin) using histone peptide/SAM as substrate at 10 uM by AlphaLisa assay
[35] = target: T3, Histone-lysine N-methyltransferase 2A; assay: Inhibition of MLL1 (unknown origin) using histone peptide/SAM as substrate by HTRF assay
[36] = target: T1, DNA (cytosine-5)-methyltransferase 1; assay: Inhibition of DNMT1 (unknown origin) using histone peptide/SAM as substrate at 10 uM by AlphaLisa assay
[37] = target: T6, Protein arginine N-methyltransferase 5; assay: Inhibition of PRMT5 (unknown origin) using histone peptide/SAM as substrate at 10 uM by AlphaLisa assay
[38] = Antiproliferative activity against human WILL-1 cells expressing wild-type EZH2 assessed as inhibition of cell proliferation incubated for 6 days by CCK8 assay; format: functional, cell-based; conditions: WILL-1, 144 h
WSUDLCL2 = assay: Antiproliferative activity against human WSUDLCL2 cells expressing wild-type EZH2 assessed as inhibition of cell proliferation incubated for 6 days by CCK8 assay; format: functional, cell-based; conditions: WSUDLCL2, 144 h
[39] = target: T5, Histone-lysine N-methyltransferase, H3 lysine-36 specific; assay: Inhibition of NSD1 (unknown origin) using histone peptide/SAM as substrate by AlphaLisa assay

Structure (SMILES): C=CC(=O)NCc1cc(C(=O)NCc2c(SC)cc(C)[nH]c2=O)c(C)c(N(CC)C2CCOCC2)c1
- inhibition (Pfeiffer [1]): Active
- inhibition (SU-DHL10): Active
- Papp at 20 µM [2]: 0.052 ×10⁻⁶ cm/s
- IC50 [3]: > 10 µM
- IC50 (OPM-2): > 3 µM
- IC50 [4]: > 10 µM
- IC50 [5]: > 10 µM
- IC50 (KARPAS-422 [6]): 0.064 µM
- inhibition (RL): Active
- Activity (Pfeiffer [7]): inactive
- t1/2 [8]: 16.8 min
- IC50 [9]: > 10 µM
- IC50 [10]: > 10 µM
- inhibition [11]: inactive
- inhibition [12]: inactive
- inhibition [13]: inactive
- Activity (Pfeiffer [14]): Dose-Dependent Effect
- IC50 (U2932): > 3 µM
- Activity (Pfeiffer [15]): Active
- inhibition (KARPAS-422 [16]): Active
- inhibition (Karpas-1106P): Active
- inhibition [17]: inactive
- inhibition (HT): Active
- bioavailability [18]: 0.05%
- Activity (KARPAS-422 [19]): Tde
- IC50 [20]: > 10 µM
- inhibition [21]: inactive
- Cmax [22]: 29.5 ng/mL
- Activity (Pfeiffer [23]): Tde
- IC50 [24]: > 10 µM
- IC50 [25]: > 10 µM
- IC50 (Pfeiffer [26]): 0.022 µM
- AUC(0-t) [27]: 4890 ng·h/mL
- inhibition [28]: inactive
- Activity (KARPAS-422 [29]): Dose-Dependent Effect
- Activity (Pfeiffer [30]): inactive
- AUC(0-t) [31]: 8.16 ng·h/mL
- half-life [32]: 33.8 min
- inhibition [33]: inactive
- IC50 (SU-DHL-2): > 3 µM
- IC50 (DB): > 3 µM
- inhibition [34]: inactive
- IC50 [35]: > 10 µM
- inhibition [36]: inactive
- inhibition [37]: inactive
- IC50 [38]: > 3 µM
- IC50 (WSUDLCL2): > 3 µM
- IC50 [39]: > 10 µM
